In article PMC8233204, “Cardiac myosin-binding protein C interaction with actin is inhibited by compounds identified in a high-throughput fluorescence lifetime screen” (The Journal of Biological Chemistry, 2021):
“Also recorded” adds a separate entry of the source. Read-outs that look alike come from different tables or passages of the source.

Key:
F-actin = target: T1, F-actin (Oryctolagus cuniculus, UniProt P68135); assay: ITC of compounds with actin alone; format: binding, rabbit; settings: for ITC interaction with F-actin (in words): actin alone
T1 construct: Actin was prepared from rabbit skeletal muscle by extracting acetone powder; from tissue; host or cells: rabbit skeletal muscle (acetone powder)
Method: The titration of compounds binding to cMyBP-C was performed on an Affinity ITC (TA Instruments). Each compound in M-ABB buffer (2000–3000 μM) was titrated into C0-C2 in M-ABB buffer (100 μM, 350 μl). For the titration, a preliminary 2.5-μl injection (ignored in data analysis) was followed by 19–39 subsequent 2.5-μl injections with 4 min waits between each injection. The reference cell was filled with distilled water. To account for heat changes of dilution and mechanical mixing, binding data were corrected by subtraction of the final plateau injection values (when binding is complete) prior to curve fitting. Corrected binding data was processed using the NanoAnalyze analysis software (TA Instruments).
Figure S2. ITC of Suramin binding to actin alone. (A) Titration of 100 µM F-actin (in 350 µl) with 40 2.5
µl injections of 3,000 µM Suramin. (B) Fitted ITC binding curve for Suramin binding. Binding to actin was
for Suramin with actin alone (Kd ~200 µM).
(1 picture or pasted object on this page, not shown here)

C0-C2 = target: T2, C0-C2 (Homo sapiens, UniProt Q14896); assay: Visible light scattering (C0-C2 aggregation); settings: 2 or 10 μM C0-C2 mixed with compound for 20 min
T2 construct: N-terminal domains C0 through C2 (C0-C2), containing the proline/alanine-rich linker (P/A) and the M-domain (M); 6x His (N, cleaved yes); TEV protease cleavage site (N, cleaved yes); made in house; host or cells: E. coli BL21DE3
Method: All three drugs were tested for causing C0-C2 to aggregate by measuring absorbance in the visible range beyond the absorption of protein or the drugs themselves. Observed absorbance in these wavelengths is actually loss of transmitted light due to light scattering from aggregated C0-C2. 2 or 10 μM of C0-C2 was mixed with 20 μM of suramin, NF023, or ATA for 20 min and wavelengths 250–600 nm were scanned using a Beckman Coulter DU730 UV/Vis Spectrophotometer to determine optical density. The same was done with 2 or 10 μM of C0-C2 and 20 μM of suramin, NF023, or ATA alone.

[1] = target: T3, AF568-actin:C0-C2 (actin-cMyBP-C binding) (Homo sapiens, UniProt Q14896); assay: TR-F concentration-response assay, AF568-actin with C0-C2; settings: 2 μM C0-C2; for EC50: 1 μM AF568-actin, mean ± SE; for TR-F n: n not defined in table
Method: (§5) Using the same conditions as in the primary screen, we determined the concentration dependence of each of the three Hit compounds on the AF568-actin lifetime effects. […] In a separate dose–response assay utilizing 3 μM C0-C2, we compared the effects of the compounds on nonphosphorylated and phosphorylated C0-C2. […] In the second dose-response assay, 3 μM instead of 2 μM C0-C2 was used in the second dose–response assay so that effects of compounds on phosphorylated C0-C2 could be readily detected, as phosphorylation of C0-C2 itself (in the absence of compounds) reduces binding to actin.
The Hit compounds were dissolved in DMSO to make a 10 mM stock solution, which was serially diluted in 96-well mother plates. Hits were screened at eight concentrations (0.5–100 μM). Compounds (1 μl) were transferred from the mother plates into 384-well plates using a Mosquito HV liquid handler (TTP Labtech Ltd). The same procedure of dispensing as for the pilot screening was applied in the TR-F concentration–response assays. Concentration dependence of the TR-F change was fitted using the Hill equation ([38]):(3) τ=τo+τmaxC^α/EC50α+C^α where τ and τ0 are TR-F in the presence and in the absence of the compound, τmax is the maximum effect, C is the compound concentration, EC50 is the compound concentration for which 50% of maximum effect is obtained, and α is the Hill coefficient of sigmoidicity.

[2] = target: AF568-actin:phosphorylated (by PKA) C0-C2 (Homo sapiens, UniProt Q14896); assay: TR-F concentration-response assay, AF568-actin with PKA-phosphorylated C0-C2; settings: for TR-F+PKA n: 3 μM phosphorylated C0-C2, n not defined in table
Method: as §5
C0-C2 was treated with 7.5 ng PKA/μg C0-C2 at 30 °C for 30 min.
The Hit compounds were dissolved in DMSO to make a 10 mM stock solution, which was serially diluted in 96-well mother plates. Hits were screened at eight concentrations (0.5–100 μM). Compounds (1 μl) were transferred from the mother plates into 384-well plates using a Mosquito HV liquid handler (TTP Labtech Ltd). The same procedure of dispensing as for the pilot screening was applied in the TR-F concentration–response assays.

AF568-actin = target: T4, AF568-actin (Oryctolagus cuniculus, UniProt P68135); assay: TR-F high-throughput screen, AF568-actin alone (no C0-C2); format: binding, rabbit; settings: 10 μM compound; 1 μM AF568-actin alone
T4 construct: Actin was prepared from rabbit skeletal muscle by extracting acetone powder; from tissue; host or cells: rabbit skeletal muscle (acetone powder)
Method: (§1) The 1280 LOPAC compounds were received in 96-well plates (LOPAC^1280, Sigma-Aldrich) and were reformatted into 1536-well flat, black-bottom polypropylene plates (Greiner Bio-One). In total, 50 nl of compounds was dispensed using an automated Echo 550 acoustic liquid dispenser (Labcyte). LOPAC compounds were formatted into plates, with the first two and last two columns loaded with 50 nl of DMSO and used for compound-free controls. The final concentration of the compounds was 10 μM. These assay plates were then heat-sealed using a PlateLoc Thermal Microplate Sealer (Agilent Technologies) and stored at –20 °C. Before screening, compound plates were equilibrated to room temperature (25 °C). In total, 1 μM AF568-labeled actin without or with 2 μM C0-C2 in M-ABB was dispensed by a Multidrop Combi Reagent Dispenser (Thermo Fisher Scientific) into the 1536-well assay plates containing the compounds. Plates were incubated at room temperature for 20 min before recording the data with the FLTPR. Plates were rescanned after 120 min incubation.
(§2) Two full screens were done using different batches of AF568-labeled actin, C0-C2, and test compounds.
(§3) Following data acquisition, TR-F waveforms observed for each well were convolved with the IRF to determine the lifetime (τ) (Equation 1) by fitting to a single-exponential decay ([15], [35]).
(§4) A compound was considered a Hit if it was in the top 25 compounds in each of two independent screenings of the LOPAC. Top compounds were those that increased the lifetime of AF568-actin when C0-C2 was present (indicating inhibition of C0-C2 binding). Compounds that altered AF568-actin lifetime when C0-C2 was not present by >4 SD relative to that of the control samples (those exposed to 0.1% DMSO) were first removed from the analysis. […] Any change in lifetime induced by a compound on AF568-actin alone was then subtracted from the effect of the compound on AF568-actin when C0-C2 was present. The resulting C0-C2-dependent change for all compounds was ranked.

[3] = target: C0-C2 portion of human cMyBP-C (Homo sapiens, UniProt Q14896); assay: Isothermal titration calorimetry (ITC) of compounds binding to C0-C2; settings: for ITC ΔS / ITC ΔH / ITC ΔG: Table 1 average; for ITC ΔS: no unit in table (Fig. 4: J/mol•K); for ITC ΔH: no unit in table (Fig. 4: kJ/mol); for ITC ΔG: unit not given; for ITC n (stoichiometry, compound per C0-C2): average of two preparations
[4] = target: T3, AF568-actin:C0-C2 (actin-cMyBP-C binding); assay: TR-F high-throughput screen of LOPAC library, AF568-actin with C0-C2; settings: for Actin-MyBP-C Drug Δτ, Screen 1 / Actin-MyBP-C Drug Δτ, Screen 2 / Actin-MyBP-C Drug Δτ, Sub-optimal Screen 3 / Actin-MyBP-C Drug Δτ, Sub-optimal Screen 4 / average change in lifetime, SD above the median of all compounds not excluded: 10 μM compound, 1 μM AF568-actin, 2 μM C0-C2; for average change in lifetime, SD above the median of all compounds not excluded: average of screens; for Difference, Screen 1 / Difference, Screen 2 / Difference, Sub-optimal Screen 3 / Difference, Sub-optimal Screen 4: Δτ actin+C0-C2 after subtracting effect on actin alone
Method: as §1, §2, §3, §4

[5] = target: T5, FMAL-actin:TMR-C0-C2^Cys225 (Homo sapiens, UniProt Q14896, C239L/C249S/C426T/C436V/C443S/H225C); assay: FMAL-actin-TMR-C0-C2 TR-FRET binding assay; settings: 1 μM FMAL-actin, 2 μM TMR-C0-C2, both nonphosphorylated and phosphorylated C0-C2
T5 construct: N-terminal domains C0 through C2 (C0-C2), containing the proline/alanine-rich linker (P/A) and the M-domain (M); 6x His (N, cleaved yes); TEV protease cleavage site (N, cleaved yes); made in house; host or cells: E. coli BL21DE3 (C0-C2^Cys225); actin purified from rabbit skeletal muscle
Method: In total, 1 μM F-Actin labeled (to 10%) on Cys-374 with FMAL (donor fluor) was incubated with increasing concentrations (0–20 μM) of C0-C2^Cys225 unlabeled (for donor only (D) data acquisition) or labeled to 95% with TMR (acceptor fluor) (for donor–acceptor (DA) data). Lifetimes of FMAL-actin were determined for D and DA at each concentration of C0-C2^Cys225. TR-FRET efficiency (1 – (τDA/τD)) was determined for each C0-C2^Cys225 concentration. The binding curve was generated from data from two separate preparations of actin and C0-C2^Cys225. Testing of compound effects by TR-FRET was similarly done at 1 μM FMAL-actin with unlabeled C0-C2^Cys225 (D) and TMR-C0-C2^Cys225 (DA), both at 2 μM.

[6] = target: FMAL-actin (F-actin from rabbit skeletal muscle labeled at Cys-374 with fluorescein-5-maleimide) (rabbit) (UniProt P68135); assay: FRET or BRET; TR-FRET; 1 μM F-actin labeled (to 10%) with FMAL (donor) with 0-20 μM TMR-C0-C2^Cys225 (acceptor) ±PKA; M-ABB
[7] = target: FMAL-actin (F-actin from rabbit skeletal muscle labeled at Cys-374 with fluorescein-5-maleimide) (rabbit) (UniProt P68135); assay: as above; remark: listed apart in the source
[8] = compound binding to C0-C2, mean ± SE, two protein preparations, read-out: ITC Kd
[9] = single titration shown in Fig. 4
[10] = single titration shown in Fig. 4, 100 μM C0-C2, read-out: ITC Kd (fitted curve of Figure 4)

T5 sequence (Q14896 1-451 H225C/C239L/C249S/C426T/C436V/C443S limits assumed): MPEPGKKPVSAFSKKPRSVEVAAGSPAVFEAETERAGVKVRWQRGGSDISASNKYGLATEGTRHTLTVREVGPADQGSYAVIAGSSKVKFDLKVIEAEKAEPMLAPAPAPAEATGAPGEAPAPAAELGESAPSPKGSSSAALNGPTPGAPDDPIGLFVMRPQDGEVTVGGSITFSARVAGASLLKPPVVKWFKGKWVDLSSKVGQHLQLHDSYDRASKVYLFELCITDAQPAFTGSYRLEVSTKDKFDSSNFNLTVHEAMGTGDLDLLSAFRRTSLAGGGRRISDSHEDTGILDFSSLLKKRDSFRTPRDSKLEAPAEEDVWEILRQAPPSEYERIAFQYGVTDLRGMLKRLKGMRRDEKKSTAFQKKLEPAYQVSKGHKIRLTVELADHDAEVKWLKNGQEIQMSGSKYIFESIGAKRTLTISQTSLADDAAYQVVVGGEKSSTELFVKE
T2 sequence (Q14896 1-451 limits assumed): as the sequence (Q14896 1-451 H225C/C239L/C249S/C426T/C436V/C443S limits assumed) above, with C225H, L239C, S249C, T426C, V436C, S443C counted along it
Sequence of C0-C2 portion of human cMyBP-C (Q14896 1-451 limits assumed): as the sequence (Q14896 1-451 H225C/C239L/C249S/C426T/C436V/C443S limits assumed) above, with C225H, L239C, S249C, T426C, V436C, S443C counted along it
T3 sequence (Q14896 1-451 limits assumed): as the sequence (Q14896 1-451 H225C/C239L/C249S/C426T/C436V/C443S limits assumed) above, with C225H, L239C, S249C, T426C, V436C, S443C counted along it
Sequence of AF568-actin:phosphorylated (by PKA) C0-C2 (Q14896 1-451 limits assumed): as the sequence (Q14896 1-451 H225C/C239L/C249S/C426T/C436V/C443S limits assumed) above, with C225H, L239C, S249C, T426C, V436C, S443C counted along it

Row | Compound | ITC interaction with F-actin (in words) (F-actin) | absorbance in the visible range (light scatter, C0-C2 aggregation) (C0-C2) | EC50 [1] [µM] | TR-F n [1] | TR-F+PKA n [2] | Actin Drug Δτ, Screen 1 (AF568-actin) [ns] | Actin Drug Δτ, Screen 2 (AF568-actin) [ns] | Actin Drug Δτ, Sub-optimal Screen 3 (AF568-actin) [ns] | Actin Drug Δτ, Sub-optimal Screen 4 (AF568-actin) [ns] | ITC ΔS [3] | ITC ΔH [3] | ITC ΔG [3] | ITC n (stoichiometry, compound per C0-C2) [3] | Kd [3, 8] [µM] | ITC n (fitted curve of Figure 4) [3, 9] | ITC ΔH (fitted curve of Figure 4) [3, 9] [kcal/mol] | ITC ΔS (fitted curve of Figure 4) [3, 9] [J/mol•K] | Kd [3, 10] [µM] | Actin-MyBP-C Drug Δτ, Screen 1 [4] [ns] | Actin-MyBP-C Drug Δτ, Screen 2 [4] [ns] | other results
1 | O=C(O)C1=CC(=C(c2ccc(O)c(C(=O)O)c2)c2ccc(O)c(C(=O)O)c2)C=CC1=O [ATA, aurintricarboxylic acid] | not apparent; also recorded: no interaction | detected absorption | 7.9 ± 1.9 | 3.4 | 1.4 | -0.04 | 0.00 | -0.03 | 0.00 | 52.9 | −10.2 | −25.8 | 3.1 | 25.9 ± 2.2 | 2.1 | -2.49 | 51.5 | 28.1 | 0.008 | 0.06 | EC50 [2]: 4.3 ± 0.9 µM; Actin-MyBP-C Drug Δτ, Sub-optimal Screen 3 [4]: 0.07 ns; Actin-MyBP-C Drug Δτ, Sub-optimal Screen 4 [4]: 0.07 ns; average change in lifetime, SD above the median of all compounds not excluded [4]: 3.0 SD; Difference, Screen 1 [4]: 0.04 ns; Difference, Screen 2 [4]: 0.06 ns; Difference, Sub-optimal Screen 3 [4]: 0.10 ns; Difference, Sub-optimal Screen 4 [4]: 0.07 ns; TR-FRET measured binding of C0-C2 to actin, effect of compound ([5]; 20 μM compound): almost completely eliminated; also recorded: near zero
2 | O=C(Nc1cccc(C(=O)Nc2ccc(S(=O)(=O)O)c3cc(S(=O)(=O)O)cc(S(=O)(=O)O)c23)c1)Nc1cccc(C(=O)Nc2ccc(S(=O)(=O)O)c3cc(S(=O)(=O)O)cc(S(=O)(=O)O)c23)c1 [NF023] | not apparent; also recorded: no interaction | did not detect absorption | 16.3 ± 1.2 | 3.2 | 1.8 | -0.03 | 0.01 | -0.02 | 0.01 | −19.2 | −30.2 | −24.6 | 2.1 | 42 ± 3.4 | 2.6 | -7.43 | 20.9 | 35.1 | 0.058 | 0.07 | EC50 ([2]; read-out: TR-F+PKA EC50, 1 μM AF568-actin, 3 μM PKA-phosphorylated C0-C2, mean ± SE): 17.5 ± 11.8 µM; Actin-MyBP-C Drug Δτ, Sub-optimal Screen 3 [4]: 0.06 ns; Actin-MyBP-C Drug Δτ, Sub-optimal Screen 4 [4]: 0.04 ns; average change in lifetime, SD above the median of all compounds not excluded [4]: 3.8 SD; Difference, Screen 1 [4]: 0.09 ns; Difference, Screen 2 [4]: 0.06 ns; Difference, Sub-optimal Screen 3 [4]: 0.08 ns; Difference, Sub-optimal Screen 4 [4]: 0.03 ns; TR-FRET measured binding of C0-C2 to actin, effect of compound ([5]; 50 μM compound): almost completely eliminated
3 | Cc1ccc(C(=O)Nc2ccc(S(=O)(=O)O)c3cc(S(=O)(=O)O)cc(S(=O)(=O)O)c23)cc1NC(=O)c1cccc(NC(=O)Nc2cccc(C(=O)Nc3cc(C(=O)Nc4ccc(S(=O)(=O)O)c5cc(S(=O)(=O)O)cc(S(=O)(=O)O)c45)ccc3C)c2)c1 [Suramin, suramin] | weak interaction | did not detect absorption | 5.9 ± 1.2 | 3.6 | 1.2 | -0.03 | 0.00 | -0.03 | 0.04 | 32.3 | −17.4 | −26.8 | 3.4 | 16.6 ± 1 | 3.9 | -4.25 | 30.2 | 17.6 | 0.088 | 0.15 | Kd (F-actin): ~200 µM; EC50 [2]: 4.8 ± 1.2 µM; Actin-MyBP-C Drug Δτ, Sub-optimal Screen 3 [4]: 0.18 ns; Actin-MyBP-C Drug Δτ, Sub-optimal Screen 4 [4]: 0.13 ns; average change in lifetime, SD above the median of all compounds not excluded [4]: 6.5 SD; Difference, Screen 1 [4]: 0.12 ns; Difference, Screen 2 [4]: 0.16 ns; Difference, Sub-optimal Screen 3 [4]: 0.21 ns; Difference, Sub-optimal Screen 4 [4]: 0.09 ns; TR-FRET measured binding of C0-C2 to actin, effect of compound ([5]; 20 μM compound): almost completely eliminated
4 | TMR-C0-C2^Cys225 (single-cysteine C0-C2 of human cMyBP-C labeled with tetramethylrhodamine at Cys225) (from UniProt Q14896 1-1274) (domain or fragment) |  |  |  |  |  |  |  |  |  |  |  |  |  |  |  |  |  |  |  |  | Kd [6]: 1 µM; Kd [7]: 2.6 µM; donor lifetime τDA of FMAL-actin with 20 μM TMR-C0-C2^Cys225 (τD = 4.2 ns) [7]: 2 ns
